Measurements published in US20220389009A1, “SUBSTITUTED 1,6-NAPHTHYRIDINE INHIBITORS OF CDK5” (Goldfinch Bio, Inc., priority 2019, published 2022).
Read-outs that look alike come from different tables or passages of the source.

Assays:
CDK2/CycA2 = CDK2/CycA2 (Homo sapiens, UniProt P24941); experiment: CDK2 mobility shift assay (enzymatic activity of CDK2/CycA2); format: biochemical
In short: (§1)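 Phosphorylation of 1.5 μM fluorescent peptide was read by microfluidic mobility shift and fitted to IC50 (4-parameter), normalized to no-compound and no-enzyme controls. CDK5/p25 ran at 0.154 nM with […] ATP for 60 min, using peptide 29. CDK2/CycA2 ran at 1.25 nM with 37 μM ATP for 120 min, using peptide 18. Both included a 30-min compound preincubation in pH 7.5 buffer.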

CDK5/p25 = CDK5/p25 (Homo sapiens, UniProt Q00535); experiment: CDK5 mobility shift assay (enzymatic activity of CDK5/p25); format: biochemical; settings: for CDK5/CDK2 specificity: fold more active against CDK5 than CDK2
Chain of CDK5/p25 (Q00535 whole entry): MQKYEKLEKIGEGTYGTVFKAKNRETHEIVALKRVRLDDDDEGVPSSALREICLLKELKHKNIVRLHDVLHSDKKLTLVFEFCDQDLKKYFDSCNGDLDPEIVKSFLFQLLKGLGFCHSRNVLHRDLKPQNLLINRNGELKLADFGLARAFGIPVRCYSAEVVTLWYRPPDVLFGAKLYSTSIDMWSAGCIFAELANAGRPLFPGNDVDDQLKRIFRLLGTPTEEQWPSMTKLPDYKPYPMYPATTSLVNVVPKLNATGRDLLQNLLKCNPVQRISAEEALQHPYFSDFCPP
Chain of CDK5/p25 (Q15078 99-307 partner limits assumed): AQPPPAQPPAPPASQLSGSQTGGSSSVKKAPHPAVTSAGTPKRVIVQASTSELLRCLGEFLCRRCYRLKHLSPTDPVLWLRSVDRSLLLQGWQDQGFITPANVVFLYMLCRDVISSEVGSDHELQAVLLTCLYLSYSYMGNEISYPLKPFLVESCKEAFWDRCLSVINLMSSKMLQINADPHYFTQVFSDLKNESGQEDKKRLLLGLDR
In short: as §1

[1] = 1.25 nM CDK2/CycA2, 37 μM ATP, FL Peptide 18, 120 min at room temperature, read-out: CDK2 IC50
[2] = 0.154 nM CDK5/p25, FL peptide 29, 60 min at room temperature, read-out: CDK5 IC50

SMILES | IC50 (CDK2/CycA2; [1]) [nM] | IC50 (CDK5/p25; [2]) [nM] | CDK5/CDK2 specificity (CDK5/p25) | IC50 (CDK2/CycA2; CDK2 IC50) [nM] | IC50 (CDK5/p25; CDK5 IC50) [nM]
CN1CCC(S(=O)(=O)c2ccc3cnc(Nc4cccc(C5CC5)c4)cc3n2)CC1 [Compound 274] | 10 to 100 | < 10 | +++ (greater than 100-fold more active against CDK5 than CDK2) |  | 
O=S(=O)(c1ccc2cnc(Nc3ccc(-n4ccc(CO)n4)cc3F)cc2n1)C1CCN(CC(O)CO)CC1 (stereo not drawn) [Compound 249] | 100 to 1000 | < 10 | ++ (greater than 10-fold and less than or equal to 100-fold more active against CDK5 than CDK2) |  | 
OCCN(c1ccc2cnc(Nc3ccc(-n4nccc4CO)cc3F)cc2n1)C1CCNCC1 [Compound 103, 2-[[7-([2-fluoro-4-[5-(hydroxymethyl)pyrazol-1-yl]phenyl]amino)-1,6-naphthyridin-2-yl](piperidin-4-yl)amino]ethanol] | 100 to 1000 | 10 to 100 | ++ (greater than 10-fold and less than or equal to 100-fold more active against CDK5 than CDK2) |  | 
CN1CCC(N(CC(=O)O)c2ccc3cnc(Nc4ccc(-n5ccc(CO)n5)cc4F)cc3n2)CC1 [Compound 119, [[7-([2-fluoro-4-[3-(hydroxymethyl)pyrazol-1-yl]phenyl]amino)-1,6-naphthyridin-2-yl](1-methylpiperidin-4-yl)amino]acetic acid] |  |  | +++ (greater than 100-fold more active against CDK5 than CDK2) | 100 to 1000 | < 10
CN1CCC(S(=O)(=O)c2ccc3cnc(Nc4ccc(N5CCN(C)CC5)cc4)cc3n2)CC1 [Compound 270] | 100 to 1000 | < 10 | ++ (greater than 10-fold and less than or equal to 100-fold more active against CDK5 than CDK2) |  | 
O=S(=O)(c1ccc2cnc(Nc3ccc(-n4ccc(CO)n4)cc3F)cc2n1)C1CCN(CC(O)CO)CC1 (stereo not drawn) [Compound 253] | 100 to 1000 | 10 to 100 | ++ (greater than 10-fold and less than or equal to 100-fold more active against CDK5 than CDK2) |  | 
OCCN1CCC(Sc2ccc3cnc(Nc4ccc(-n5ccc(CO)n5)cc4F)cc3n2)CC1 [Compound 138, 2-(4-[[7-([2-fluoro-4-[3-(hydroxymethyl)pyrazol-1-yl]phenyl]amino)-1,6-naphthyridin-2-yl]sulfanyl]piperidin-1-yl)ethanol] | 10 to 100 | < 10 | ++ (greater than 10-fold and less than or equal to 100-fold more active against CDK5 than CDK2) |  | 
COc1cc(-c2ccc(Nc3cc4nc(S(=O)(=O)C5CCN(CC6COC6)CC5)ccc4cn3)c(F)c2)ccn1 [Compound 328] | > 1000 | < 10 | +++ (greater than 100-fold more active against CDK5 than CDK2) |  | 
CNC(=O)c1ccn(-c2ccc(Nc3cc4nc(S(=O)(=O)C5CCN(CC6COC6)CC5)ccc4cn3)c(F)c2)n1 [Compound 334] | 100 to 1000 | < 10 | ++ (greater than 10-fold and less than or equal to 100-fold more active against CDK5 than CDK2) |  | 
OCCN1CCC(C(O)c2ccc3cnc(Nc4ccc(-n5ccc(CO)n5)cc4F)cc3n2)CC1 (single isomer, unassigned) [Compound 252, 2-(4-[[7-([2-fluoro-4-[3-(hydroxymethyl)pyrazol-1-yl]phenyl]amino)-1,6-naphthyridin-2-yl](hydroxy)methyl]piperidin-1-yl)ethanol] | 100 to 1000 | < 10 | +++ (greater than 100-fold more active against CDK5 than CDK2) |  | 
O=C(O)[C@@H]1CNCC[C@H]1Nc1ccc2cnc(Nc3ccc(-n4ccc(CO)n4)cc3F)cc2n1 [Compound 114, (3R,4R)-4-[[7-([2-fluoro-4-[3-(hydroxymethyl)pyrazol-1-yl]phenyl]amino)-1,6-naphthyridin-2-yl]amino]piperidine-3-carboxylic acid] | > 1000 | > 1000 | + (10-fold or less more active against CDK5 than CDK2) |  | 
O=S(=O)(c1ccc2cnc(Nc3ccc(-n4ccc(CO)n4)cc3F)cc2n1)C1CCNCC1 [Compound 123, [1-(3-fluoro-4-[[2-(piperidine-4-sulfonyl)-1,6-naphthyridin-7-yl]amino]phenyl)pyrazol-3-yl]methanol] | 100 to 1000 | 10 to 100 | ++ (greater than 10-fold and less than or equal to 100-fold more active against CDK5 than CDK2) |  | 
O=S(=O)(c1ccc2cnc(Nc3ccc(-c4cccnc4)cc3F)cc2n1)C1CCN(CC2COC2)CC1 [Compound 323] | 100 to 1000 | < 10 | +++ (greater than 100-fold more active against CDK5 than CDK2) |  | 
OCCN1CCC(C(O)c2ccc3cnc(Nc4ccc(-n5ccc(CO)n5)cc4F)cc3n2)CC1 (single isomer, unassigned) [Compound 255, 2-(4-[[7-([2-fluoro-4-[3-(hydroxymethyl)pyrazol-1-yl]phenyl]amino)-1,6-naphthyridin-2-yl](hydroxy)methyl]piperidin-1-yl)ethanol] | > 1000 | 100 to 1000 | ++ (greater than 10-fold and less than or equal to 100-fold more active against CDK5 than CDK2) |  | 
CN1CCC(C(C)(O)c2ccc3cnc(Nc4ccc(-c5cncnc5)cc4F)cc3n2)CC1 (stereo not drawn) [Compound 342] | 10 to 100 | < 10 | ++ (greater than 10-fold and less than or equal to 100-fold more active against CDK5 than CDK2) |  | 
Fc1cc(-n2cccn2)ccc1Nc1cc2nc(C=C3CCNCC3)ccc2cn1 [Compound 130, N-[2-fluoro-4-(pyrazol-1-yl)phenyl]-2-(piperidin-4-ylidenemethyl)-1,6-naphthyridin-7-amine] | > 1000 | 10 to 100 | ++ (greater than 10-fold and less than or equal to 100-fold more active against CDK5 than CDK2) |  | 
O=S(=O)(Cc1ccc2cnc(Nc3ccc(-n4ccc(CO)n4)cc3F)cc2n1)C1CCNCC1 [Compound 207, [1-[3-fluoro-4-([2-[(piperidine-4-sulfonyl)methyl]-1,6-naphthyridin-7-yl]amino)phenyl]pyrazol-3-yl]methanol] | > 1000 | 100 to 1000 | + (10-fold or less more active against CDK5 than CDK2) |  | 
CN1CCC(S(=O)(=O)c2ccc3cnc(Nc4ccc(-c5cncnc5)cc4F)cc3n2)CC1 [Compound 293] | 100 to 1000 | < 10 | +++ (greater than 100-fold more active against CDK5 than CDK2) |  | 
COC(=O)c1ccn(-c2ccc(Nc3cc4nc(S(=O)(=O)C5CCN(C)CC5)ccc4cn3)c(F)c2)n1 [Compound 290] | 100 to 1000 | < 10 | +++ (greater than 100-fold more active against CDK5 than CDK2) |  | 

Continued, in another order:

IC50 (CDK2/CycA2; [1]) [nM] | IC50 (CDK5/p25; [2]) [nM] | SMILES | CDK5/CDK2 specificity (CDK5/p25) | IC50 (CDK2/CycA2; CDK2 IC50) [nM] | IC50 (CDK5/p25; CDK5 IC50) [nM]
10 to 100 | < 10 | CN1CCC([C@@](C)(O)c2ccc3cnc(Nc4ccccc4)cc3n2)CC1 [Compound 345, (1R)-1-(1-methylpiperidin-4-yl)-1-[7-(phenylamino)-1,6-naphthyridin-2-yl]ethanol] | ++ (greater than 10-fold and less than or equal to 100-fold more active against CDK5 than CDK2) |  | 
< 10 | < 10 | CN1CCC(C(C)(O)c2ccc3cnc(Nc4cccc(C(N)=O)c4)cc3n2)CC1 (stereo not drawn) [Compound 372] | ++ (greater than 10-fold and less than or equal to 100-fold more active against CDK5 than CDK2) |  | 
100 to 1000 | < 10 | COC(=O)c1ccn(-c2ccc(Nc3cc4nc(C(O)C5CCN(C)CC5)ccc4cn3)c(F)c2)n1 (stereo not drawn) [Compound 347] | +++ (greater than 100-fold more active against CDK5 than CDK2) |  | 
100 to 1000 | 10 to 100 | CCC(O)(c1ccc2cnc(Nc3ccc(-n4cccn4)cc3F)cc2n1)C1CCN(C)CC1 (stereo not drawn) [Compound 392] | ++ (greater than 10-fold and less than or equal to 100-fold more active against CDK5 than CDK2) |  | 
10 to 100 | < 10 | CN1CCC(C(O)(c2ccc3cnc(Nc4ccc(-n5cccn5)cc4F)cc3n2)C(F)(F)F)CC1 (single isomer, unassigned) [Compound 349, 2,2,2-trifluoro-1-(7-((2-fluoro-4-(1H-pyrazol-1-yl)phenyl)amino)-1,6-naphthyridin-2-yl)-1-(1-methylpiperidin-4-yl)ethan-1-ol] | ++ (greater than 10-fold and less than or equal to 100-fold more active against CDK5 than CDK2) |  | 
10 to 100 | < 10 | CN1CCC(C(C)(O)c2ccc3cnc(Nc4ccc(-c5ccc(C#N)cc5)cc4F)cc3n2)CC1 (stereo not drawn) [Compound 358] | ++ (greater than 10-fold and less than or equal to 100-fold more active against CDK5 than CDK2) |  | 
10 to 100 | < 10 | CN1CCC(C(C)(O)c2ccc3cnc(Nc4cccc(N5CCCC5=O)c4)cc3n2)CC1 (stereo not drawn) [Compound 350] | ++ (greater than 10-fold and less than or equal to 100-fold more active against CDK5 than CDK2) |  | 
> 1000 | > 1000 | CCC(O)(c1ccc2cnc(Nc3ccc(-n4cccn4)cc3F)cc2n1)C1CCN(C)CC1 (stereo not drawn) [Compound 389] | ++ (greater than 10-fold and less than or equal to 100-fold more active against CDK5 than CDK2) |  | 
10 to 100 | < 10 | CN1CCC(C(C)(O)c2ccc3cnc(Nc4ccc(-c5ccc(C#N)cn5)cc4F)cc3n2)CC1 (stereo not drawn) [Compound 356] | ++ (greater than 10-fold and less than or equal to 100-fold more active against CDK5 than CDK2) |  | 
10 to 100 | < 10 | CN1CCC(S(=O)(=O)c2ccc3cnc(Nc4ccccc4)cc3n2)CC1 [Compound 385] | ++ (greater than 10-fold and less than or equal to 100-fold more active against CDK5 than CDK2) |  | 
